The values that follow come from patent US20230183188A1, “ENPP1 MODULATORS AND USES THEREOF” (Vir Biotechnology, Inc., priority 2020, published 2023).

The target of this assay is T1, recombinant protein containing the human ENPP1 enzymatic domain (Homo sapiens, UniProt P22413).
T1 construct: recombinant protein containing the human ENPP1 enzymatic domain; purchased R&D Systems 6136-EN-010
T1 sequence (P22413 191-591 limits assumed): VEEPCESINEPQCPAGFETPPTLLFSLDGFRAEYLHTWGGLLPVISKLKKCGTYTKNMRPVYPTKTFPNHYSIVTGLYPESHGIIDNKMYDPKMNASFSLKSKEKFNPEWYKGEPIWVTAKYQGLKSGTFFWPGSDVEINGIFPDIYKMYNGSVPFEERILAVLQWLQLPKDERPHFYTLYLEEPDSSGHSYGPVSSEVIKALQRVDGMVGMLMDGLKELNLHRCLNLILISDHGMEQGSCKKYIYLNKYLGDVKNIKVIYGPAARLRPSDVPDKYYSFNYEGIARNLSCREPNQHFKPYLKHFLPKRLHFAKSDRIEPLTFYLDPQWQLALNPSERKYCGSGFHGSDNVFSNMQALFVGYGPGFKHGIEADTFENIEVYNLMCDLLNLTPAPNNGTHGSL
In words: ENPP1 Enzymatic Inhibition Assay (2′3′-cGAMP substrate, AMP-Glo luminescence). It is filed as biochemical. Conditions: 1 nM ENPP1, 20 uM 2′3′-cGAMP substrate, 30 minutes at 37° C. The procedure:
The inhibition of ENPP1's phosphodiesterase activity were tested in a purified enzymatic assay using 2′3′-cyclic GAMP as a substrate which allowed for the release of cleaved AMP to be monitored using a luminescent assay.
Putative inhibitors were diluted in assay buffer (50 mM Tris pH 8.0, 250 mM NaCl, 0.5 mM CaCl2, 1 uM ZnCl2, 1% DMSO) and pre-incubated for 15 minutes at 37° C. with recombinant protein containing the human ENPP1 enzymatic domain (R&D Systems cat. #6136-EN-010). The enzymatic reaction was initiated upon addition of the 2′3′-cGAMP substrate. The final reaction concentrations were 1 nM ENPP1 and 20 uM 2′3′-cGAMP substrate in a 25 uL volume. Inhibitor concentrations ranged from 10 uM to 0.2 nM. The reaction was incubated for 30 minutes at 37° C.
After reacting for 30 minutes, the amount of AMP generated from the cleavage of 2′3′-cGAMP was determined using the Promega AMP-Glo method according to the manufacturer's protocol. First, AMP-Glo reagent 1 was added and incubated with the reaction mix for 1 hour at room temperature. Second, AMP Detection solution was added and the mixture was incubated for an additional hour. The luminescence of the mixture was read on a Perkin Elmer Ensight plate reader.
The maximum and minimum levels of ENPP1 activity were established using no inhibitor and no enzyme controls, respectively. The activity observed using ENPP1 inhibitors was quantified as the percent of activity relative to these controls. IC50 values were calculated using GraphPad Prism by fitting a sigmoidal variable slope nonlinear regression model to the data.
As to `COc1ccc2c(Oc3ccc(S(N)(=O)=NC[C@@H]4CCCN4C(=O)OC(C)(C)C)cc3)ccnc2c1` (stereo partly drawn) [Compound 43, tert-butyl (2S)-2-(((amino(4-((7-methoxyquinolin-4-yl)oxy)phenyl)(oxo)-I^6-sulfaneylidene)amino)methyl) pyrrolidine-1-carboxylate], the IC50 fell in the range of 10 to 100 nM.

Regarding `COc1ccc2c(Oc3ccc(S(N)(=O)=NCc4ccc(-c5ccncc5)cc4)cc3)ccnc2c1` (stereo not shown) [Compound 35, 4-((7-methoxyquinolin-4-yl)oxy)-N′-(4-(pyridin-4-yl)benzyl)benzenesulfonimidamide], the IC50 was under 10 nM.

As for `COc1ccc2c(Oc3ccc(S(N)(=O)=NCC4CCC4)cc3)ccnc2c1` (stereo not shown) [Compound 36, N′-(cyclobutylmethyl)-4-((7-methoxyquinolin-4-yl)oxy)benzenesulfonimidamide], the IC50 is under 10 nM. The same measure for `COc1ccc2c(Oc3ccc(S(N)(=O)=NCc4ccccn4)cc3)ccnc2c1` (stereo not shown) [Compound 26, 4-((7-methoxyquinolin-4-yl)oxy)-N′-(pyridin-2-ylmethyl)benzenesulfonimidamide]: 10 to 100 nM; for `CCS(=N)(=O)c1ccc(Oc2ccnc3cc(OC)ccc23)cc1` (stereo not shown) [Compound 4, ethyl(imino)(4-((7-methoxyquinolin-4-yl)oxy)phenyl)-λ^6-sulfanone]: under 10 nM. The same measure for `COc1ccc2c(Oc3ccc(S(N)(=O)=NCCOc4ccccc4)cc3)ccnc2c1` (stereo not shown) [Compound 34, 4-((7-methoxyquinolin-4-yl)oxy)-N′-(2-phenoxyethyl)benzenesulfonimidamide]: 10 to 100 nM; for `CCN(CC)S(=N)(=O)c1ccc(Oc2ccnc3cc(OC)ccc23)cc1` (stereo not shown) [Compound 23, N,N-diethyl-4-((7-methoxyquinolin-4-yl)oxy)benzenesulfonimidamide]: over 100 nM. Then `COc1ccc2c(Oc3ccc(S(N)(=O)=NCc4ccccc4)cc3)ccnc2c1` (stereo not shown) [Compound 25, N′-benzyl-4-((7-methoxyquinolin-4-yl)oxy)benzenesulfonimidamide], with under 10 nM.

On to `COc1ccc2c(Oc3ccc(S(N)(=O)=NCCNC(C)=O)cc3)ccnc2c1` (stereo not shown) [Compound 41, N-(2-((amino(4-((7-methoxyquinolin-4-yl)oxy)phenyl)(oxo)-I^6-sulfaneylidene)amino)ethyl)acetamide], for which the IC50 is under 10 nM.

Take `COc1ccc2c(Oc3ccc(S(N)(=O)=NCC(C)(C)O)cc3)ccnc2c1` (stereo not shown) [Compound 11, N′-(2-hydroxy-2-methylpropyl)-4-((7-methoxyquinolin-4-yl)oxy)benzenesulfonimidamide]: the IC50 was under 10 nM. The same measure for `COc1ccc2c(Oc3ccc(S(N)(=O)=NCc4ccncc4)cc3)ccnc2c1` (stereo not shown) [Compound 28, 4-((7-methoxyquinolin-4-yl)oxy)-N′-(pyridin-4-ylmethyl)benzenesulfon imidamide]: 10 to 100 nM; for `COc1ccc2c(Oc3ccc(S(=N)(=O)NC[C@@H](O)CO)cc3)ccnc2c1` (single isomer, unassigned) [Compound 45]: under 10 nM. Then `COc1ccc2c(Oc3ccc(S(N)(=O)=Nc4ccccc4)cc3)ccnc2c1` (stereo not shown) [Compound 20, 4-((7-methoxyquinolin-4-yl)oxy)-N′-phenylbenzenesulfonimidamide], with 10 to 100 nM; and `COc1ccc2c(Oc3ccc(S(N)(=O)=NCCOc4ccncc4)cc3)ccnc2c1` (stereo not shown) [Compound 14, 4-((7-methoxyquinolin-4-yl)oxy)-N′-(2-(pyridin-4-yloxy)ethyl)benzenesulfonimidamide], with under 10 nM. As for `COc1ccc2c(Oc3ccc(S(N)(=O)=NCCNC(=O)OC(C)(C)C)cc3)ccnc2c1` (stereo not shown) [Compound 39, tert-butyl (2-((amino(4-((7-methoxyquinolin-4-yl)oxy)phenyl)(oxo)-λ^6-sulfaneylidene)amino)ethyl) carbamate], the IC50 lay within 10 to 100 nM. Then `CN=S(N)(=O)c1ccc(CNc2ccnc3cc(OC)ccc23)cc1` (stereo not shown) [Compound 3, 4-(((7-methoxyquinolin-4-yl)amino)methyl)-N-methylbenzenesulfonimidamide], with over 100 nM. Regarding `COc1ccc2c(Oc3ccc(S(N)(=O)=NC4(c5ccccn5)CC4)cc3)ccnc2c1` (stereo not shown) [Compound 33, 4-((7-methoxyquinolin-4-yl)oxy)-N′-(1-(pyridin-2-yl)cyclopropyl)benzenesulfonimidamide], the IC50 was under 10 nM. Then `COc1ccc2c(Oc3ccc(S(N)(=O)=NCCOc4ccccn4)cc3)ccnc2c1` (stereo not shown) [Compound 12, 4-((7-methoxyquinolin-4-yl)oxy)-N′-(2-(pyridin-2-yloxy)ethyl)benzenesulfonimidamide], with under 10 nM; and `COc1ccc2c(Oc3ccc(S(=N)(=O)N4CCOCC4)cc3)ccnc2c1` (stereo not shown) [Compound 18, 4-(4-((7-methoxyquinolin-4-yl)oxy)phenylsulfonimidoyl)morpholine], with over 100 nM; and `COc1ccc2c(Oc3ccc(S(N)(=O)=NCc4cccnc4)cc3)ccnc2c1` (stereo not shown) [Compound 27, 4-((7-methoxyquinolin-4-yl)oxy)-N′-(pyridin-3-ylmethyl)benzenesulfonimidamide], with 10 to 100 nM. The same measure for `COc1ccc2c(Oc3ccc(S(N)(=O)=NCC(=O)O)cc3)ccnc2c1` (stereo not shown) [Compound 7]: 10 to 100 nM; for `COc1ccc2c(Nc3ccc(S(=N)(=O)N(C)C)cc3)ncnc2c1` (stereo not shown) [Compound 42, 4-((7-methoxyquinazolin-4-yl)amino)-N,N-dimethylbenzenesulfonimidamide]: 10 to 100 nM; for `COc1ccc2c(Oc3ccc(S(N)(=O)=NCc4nccn4C)cc3)ccnc2c1` (stereo not shown) [Compound 16, 4-((7-methoxyquinolin-4-yl)oxy)-N′-((1-methyl-1H-imidazol-2-yl)methyl)benzenesulfonimidamide]: under 10 nM. The same measure for `COc1ccc2c(Oc3ccc(S(N)(=O)=NCCc4ccccc4)cc3)ccnc2c1` (stereo not shown) [Compound 19, 4-((7-methoxyquinolin-4-yl)oxy)-N′-phenethylbenzenesulfonimidamide]: 10 to 100 nM; for `COc1ccc2c(Oc3ccc(S(N)(=O)=NCCOc4cccnc4)cc3)ccnc2c1` (stereo not shown) [Compound 13, 4-((7-methoxyquinolin-4-yl)oxy)-N′-(2-(pyridin-3-yloxy)ethyl)benzenesulfonimidamide]: under 10 nM.

Turning to `COc1ccc2c(Oc3ccc(S(=N)(=O)N(C)C)cc3)ccnc2c1` (stereo not shown) [Compound 32, 4-((7-methoxyquinolin-4-yl)oxy)-N, N-dimethylbenzenesulfonimidamide], the IC50 is over 100 nM. The same measure for `COc1ccc2c(Oc3ccc(S(N)(=O)=NC[C@H]4CCCN4C(=O)OC(C)(C)C)cc3)ccnc2c1` (stereo partly drawn) [Compound 5, tert-butyl (2R)-2-(((amino(4-((7-methoxyquinolin-4-yl)oxy)phenyl)(oxo)-I^6-sulfaneylidene)amino)methyl) pyrrolidine-1-carboxylate]: 10 to 100 nM. Then `COc1ccc2c(Oc3ccc(S(N)(=O)=Nc4ccc(-c5ccncc5)cc4)cc3)ccnc2c1` (stereo not shown) [Compound 38, 4-((7-methoxyquinolin-4-yl)oxy)-N′-(4-(pyridin-4-yl)phenyl)benzenesulfonimidamide], with 10 to 100 nM; and `COc1ccc2c(Oc3ccc(S(N)(=O)=NCc4ncco4)cc3)ccnc2c1` (stereo not shown) [Compound 15, 4-((7-methoxyquinolin-4-yl)oxy)-N′-(oxazol-2-ylmethyl)benzenesulfonimidamide], with under 10 nM; and `COc1ccc2c(Oc3ccc(S(N)(=O)=NCc4nccs4)cc3)ccnc2c1` (stereo not shown) [Compound 17, 4-((7-methoxyquinolin-4-yl)oxy)-N′-(thiazol-2-ylmethyl)benzenesulfonimidamide], with under 10 nM. Then `CCN=S(N)(=O)c1ccc(Oc2ccnc3cc(OC)ccc23)cc1` (stereo not shown) [Compound 22, N′-ethyl-4-((7-methoxyquinolin-4-yl)oxy)benzenesulfonimidamide], with 10 to 100 nM. Regarding `COc1ccc2c(Oc3ccc(S(N)(=O)=NCC4CC4)cc3)ccnc2c1` (stereo not shown) [Compound 1, N′-(cyclopropylmethyl)-4-((7-methoxyquinolin-4-yl)oxy)benzenesulfonimidamide], the IC50 is under 10 nM. For the compound `CN=S(N)(=O)c1ccc(Nc2ncnc3cc(OC)ccc23)cc1` (stereo not shown) [Compound 2, 4-((7-methoxyquinazolin-4-yl)amino)-N-methylbenzenesulfonimidamide], the IC50 is under 10 nM. The same measure for `COc1ccc2c(Oc3ccc(S(N)(=O)=NCC(C)O)cc3)ccnc2c1` (single isomer, unassigned) [Compound 10, N′-(2-hydroxypropyl)-4-((7-methoxyquinolin-4-yl)oxy)benzenesulfonimidamide]: under 10 nM.
